Results on 90 compounds are retold here after a melting point compilation (Tetko et al.; mined from patent text by program, amines drawn as free bases though some values may be those of a salt).

`CCOC(=O)c1cn(C2CC2)c2nc(Cl)c(F)cc2c1=O` registered a melting point of 176 to 178 °C.

As to `OCc1nnc(-c2ccc3occ(-c4cccc(OC(F)(F)F)c4)c3c2)o1`, the melting point lay within 158 to 159 °C. The result for `COC(=O)NC1=NCC(c2cc(Cl)ccc2Cl)CN1` (stereo not given) reads 231 to 234 °C. `COc1ccc(N=Nc2ccc(O)c(C(=O)Nc3ccc(OC)c(-c4nn(C(C)=O)c5cc(C)nn45)c3)c2)cc1` came in with a melting point of 282 to 283 °C. With `CCON=CNC(=O)c1ccc(C2=NOC(c3cc(Cl)cc(Cl)c3)(C(F)(F)F)C2)cc1C` (stereo not given), the melting point is 143 to 146 °C. The result for `CNc1cccc(-c2ccc(C(=O)O)c(=O)[nH]2)c1` reads 283 to 284 °C. Take `Cc1nc(N2CCN(Cc3ccc(C#N)cc3)C2=O)sc1C(=O)NCc1ccccc1`: the melting point was in the range of 176 to 178 °C. Then `N#CC1c2ccccc2-c2ccccc21`, with 152 to 154 °C. The result for `CC(=O)N(O)CC1=C(n2ccccc2=O)c2cc(C(F)(F)F)ccc2OC1(C)C` reads 188 °C; that for `Oc1ccc(-c2c3ccc(O)cc3cc3sc4ccccc4c23)cc1`, 233 to 235 °C. `COc1cccc(Nc2nc(-n3nc(C)cc3C)nc3ccccc23)c1`: the melting point lay in the range of 193 to 195 °C. `Cc1cc(C)n2ncc(I)c2n1` yielded a melting point of 120 to 122 °C. `CN1CCN(c2cc(N)c([N+](=O)[O-])cc2F)CC1` came in with a melting point of 154 to 155 °C. The result for `O=C(c1ccccc1)c1nsc(N2CCN(c3ccccn3)CC2)n1` reads 110 to 111 °C; that for `Cc1c(NC(=O)CC(C)(C)C)cc2c(c1C)OC(C)(C)C2(O)c1cccc(CO)c1` (stereo not given), 169 to 171 °C. Compound `Cc1cccc(C)c1N(Cn1cncn1)C(=O)CCl` showed a melting point of 115 to 118 °C. Then `O=c1oc2ccc(Cc3ccccc3)cc2c(O)c1CCCOc1ccccc1`, with 149 to 150 °C. The result for `CCCN(CCC)C(=O)Cc1c(-c2ccc(C)cc2)nn2cccnc12` reads 110 to 111 °C.

As to `Cc1ccc(Nc2nnc(Cc3ccncc3)c3ccccc23)cc1`, the melting point was 152 to 153 °C. The result for `O=Cc1ccc(CNc2ccccn2)c(Cl)c1` reads 122 to 123 °C; that for `CCCCN(CC)CC(=O)N1c2ccccc2NC(=O)c2cncnc21`, 151 to 152 °C; that for `COC(=O)CCCc1cc2nc(Cl)ccc2n1S(=O)(=O)c1ccc(F)c(F)c1`, 96 to 98 °C. With `CC12C=CC(=O)C=C1CCC1C3=CC(O)C(O)(C(=O)CO)C3(C)CC(O)C12` (stereo not given), the melting point lay within 240 to 242 °C. Then `FC(F)(F)c1cc(-c2cc3ccccc3o2)c2cccc(C(F)(F)F)c2n1`, with 129 to 130 °C; and `COC12CCCCC1CC(c1ccccc1)=NN2S(=O)(=O)c1ccc(C)cc1` (stereo not given), with 112 to 114 °C; and `O=C(Nc1ccc(C(=O)N2Cc3ccccc3Cc3ccccc32)cc1)c1cc(Cl)ccc1Cl`, with 203 to 231 °C. The result for `O=C(Nc1ccccc1)Nc1nc(C(O)CO)cs1` (stereo not given) reads 175 to 178 °C; that for `C=CCc1cn(C2OC(CO)C(O)C2O)c(=O)nc1N` (stereo not given), 176 °C. Then `CCSc1nc(Cl)nc2cccnc12`, with 101 to 103 °C; and `N#CCc1ccccc1O`, with 118 °C; and `CN(C(=O)c1ccc2nonc2c1)C1CCOC(=O)C1` (stereo not given), with 169 to 171 °C. The compound `CCOC(=O)C1=C(C)NN=C(CC)C1c1cccc(OC)c1` (stereo not given) yielded a melting point of 89 °C. The result for `C[C@]12CC/C(=C\F)C=C1CC[C@@H]1[C@@H]2CC[C@]2(C)C(=O)CC[C@@H]12` reads 101 to 102 °C; that for `CCc1nc2c(C)cc(C)nc2n1-c1ccc(CCNC(=O)NS(=O)(=O)c2ccncc2)cc1`, 228 to 229 °C; that for `COc1ccc2nc(-c3cccc(C)c3)c(-c3ccnc(NC4CCCCC4)c3)n2n1`, 188 to 189 °C.

For the compound `O=C1NC(O)C2=C1c1ccc(Cl)cc1C(c1ccccc1Cl)=NC2` (stereo not given), the melting point is 221 to 222 °C. Then `COc1ccc(C(=O)Nc2ccccc2)cc1NC(=S)Nc1ccc(C)cc1`, with 156 to 158 °C. The result for `C=C(C)C(=O)c1cn2c(C)c(CC)c(SC)nc2n1` reads 136 to 137 °C; that for `Oc1ccc2c(c1)COc1c-2cc2ccc(O)cc2c1-c1ccncc1`, over 250 °C; that for `CC(=O)OCC1OC(n2cc(C#N)c3c(Cl)nc(Cl)nc32)C(OC(C)=O)C1OC(C)=O` (stereo not given), 70 to 75 °C.

Compound `COC(=O)Cc1cc(C(=O)c2ccccc2Cl)c(N)s1` returned a melting point of 102 to 105 °C. The result for `CC(C)c1nc(CO)n(Cc2cnc3ccccc3c2)c1Sc1cc(Cl)cc(Cl)c1` reads 167 to 170 °C. The result for `O=C1NC(=O)C(=Cc2ccc(OC3CCN(C(=O)OCC4c5ccccc5-c5ccccc54)CC3)cc2)S1` reads 185 °C; that for `Cc1c(NN)nc(N)nc1-c1ccco1`, 155 to 160 °C; that for `Oc1ccc2c(c1)CC(CCc1ccccc1)O2` (stereo not given), 56 to 58 °C.

Compound `CCN1CCCC1CNC(=O)c1sc(C=O)c(C)c1OC` (stereo not given) yielded a melting point of 122 to 123 °C.

In turn, `CC(C)c1cc(C(C)C)c(C=CC(=O)c2ccc(C(C)C)c(OS(N)(=O)=O)c2C(C)C)c(C(C)C)c1` displayed a melting point of 144 to 148 °C.

Consider `CC(C)COc1ccc(Br)cc1N(Cc1ccc(N(C)C)cc1)C(=O)C1CCCc2ccccc21` (stereo not given), for which the melting point fell in the range of 176 to 178 °C. Then `O=C(Cc1ccc(Cl)cc1)Nc1cc(CC2SC(=O)NC2=O)ccc1O` (stereo not given), with 207 to 209 °C. The result for `CC1CNC(CC(c2ccccc2)c2ccccc2)=N1` (stereo not given) reads 55 to 57 °C; that for `COc1cc2c(Nc3ccc(Cl)cc3F)ncnc2cc1OCCN1C(=O)CCCC1=O`, 202 to 203 °C. Then `CCc1cccc(C)c1C(=O)N[C@@H](Cc1ccc(-c2c(C)n(C)c(=O)n(C)c2=O)cc1)C(=O)O`, with 127 to 133 °C; and `COC(=O)c1sc2c(C(F)(F)F)cccc2c1C1CCN(C(C)=O)CC1`, with 155 °C; and `CCc1ccc(Nc2nc3cc(NC(=O)c4cc(F)cc(C(F)(F)F)c4)ccc3o2)cc1`, with over 250 °C. `COc1cc2ncnc(N3CCC(C(C)CN4CCCS4(=O)=O)C(O)C3)c2cc1OC` (stereo not given) displayed a melting point of 173 to 174 °C. Then `COC(=O)c1ccc(C(=O)NNC(=O)C=Cc2ccccc2)cc1`, with 207 °C. Then `ClCc1coc(-c2ccoc2)n1`, with 70 to 71 °C; and `COC(=O)c1cccc(-c2cccc(N)c2)c1`, with 63 to 65 °C.

Regarding `CCCS(=O)(=O)NC(=O)C[C@H]1O[C@H](c2cccc(OC)c2OC)c2cc(Cl)ccc2N(CC(C)(C)CO)C1=O`, the melting point lay in the range of 135 to 137 °C.

For `OC/C=C/CC/C=C/CC/C=C/CO`, the melting point was in the range of 37 to 38 °C. Then `CS(=O)(=O)Nc1ccc(OC2SCC(O)C(O)C2O)cn1` (stereo not given), with 201 to 204 °C. The result for `CCC(=O)C(=O)NC(=O)[C@@H](N)Cc1ccccc1` reads 121 to 123 °C.

In the case of `O=C1NCCN1Cc1ccc2c(Br)cccc2c1`, the melting point lay in the range of 158 to 161 °C. The compound `CC(C)(C)C(=O)C=C(c1ccc(Cl)cc1)S(=O)(=O)c1ccccc1` displayed a melting point of 135 to 136 °C. The result for `O=C1Cc2cc(O)ccc2N1c1c(Cl)cccc1Cl` reads 204 to 205 °C. `COC(=O)[C@@H]1O[C@H]1c1ccc(OC)cc1` displayed a melting point of 86 to 87 °C. Take `c1ccc2c(c1)CCc1ccccc1C2CCN1CCCC1`: the melting point is 51 to 53 °C. Compound `Cc1nc(C)c(C(=O)Nc2ccc(-n3nc(C(F)(F)F)cc3C3CC3)cc2)s1` yielded a melting point of 117 to 122 °C.

For `NS(=O)(=O)Oc1ccc(C(=O)c2ccccc2)cc1`, the melting point was 131 to 133 °C. Then `O=C(C=Cc1ccc(N2CCCC2)cc1)c1ccc2c(c1)CCC2`, with 162 to 164 °C. The result for `CCCCCCCCCCCCNc1ccc(OCC)cc1` reads 38 to 39 °C; that for `CN1CCN(c2cc(NC(=O)OC(C)(C)C)c(N)cc2C#Cc2ccccc2)CC1`, 81 to 85 °C; that for `OCc1nn(Cc2ccccc2)c2ccccc12`, 85 to 86 °C.

The compound `CNC(=O)NC1CCC(=O)c2ccccc21` (stereo not given) came in with a melting point of 220 to 223 °C. The result for `CC(C)(C)OC(=O)Nc1ccc(-c2ccccc2F)cc1NC(=O)CC(=O)c1cc(C#N)ccc1F` reads 170 °C; that for `CSCc1cn(C)c2ccc(C)cc2c1=O`, 142 to 143 °C. Then `CO[C@H](C(=O)O)c1cccc([N+](=O)[O-])c1`, with 112 °C. The result for `O=C(Nc1ccc(Cl)cn1)N[C@@H]1C[C@@H]1c1cccc([N+](=O)[O-])c1` (racemic) reads 201 to 202 °C; that for `C=C(C)C(=O)OC(COc1ccc(C(=O)c2ccccc2)c(O)c1)COc1ccc(C(=O)c2ccccc2)c(O)c1`, 138 to 139 °C.

Compound `COC(=O)C1Oc2ccccc2Cc2cccc(O)c2O1` (stereo not given) yielded a melting point of 163 to 165 °C. Compound `Cc1ccnc(C(=O)n2cc(CC(=O)N(C)C)c3ccc(Cl)cc32)c1` had a melting point of 208 °C.

`C=CCc1cc2c(c(CC=C)c1O)CCC(=O)N2CCCN1CCN(c2cccc(Cl)c2)CC1` showed a melting point of 118 °C. Compound `CC1CC(c2cc3c(C(F)(F)F)cccc3s2)CCN1` (stereo not given) displayed a melting point of 106 to 108 °C.

Take `Cc1c(C(=O)Nc2ccc(OCC(C)C)c(C#N)c2)cnn1-c1ccc(F)cc1`: the melting point fell in the range of 177 to 178 °C. The result for `CCOC(=O)Cc1ccc(CCNC(=O)c2ccc(Cl)cc2)cc1` reads 118 to 119 °C. Take `CC1(C(CCO)C(N)=O)OCCc2c1[nH]c1ccccc21` (stereo not given): the melting point was in the range of 159 to 161 °C. On to `CC(C)(C)OC(=O)N1CCN(c2cccc(N)c2)CC1`, for which the melting point came out at 218 °C. Then `O=C(O)c1cccc(NC(=O)C(COC2CCCCO2)NS(=O)(=O)c2ccc(Cl)cc2)c1` (stereo not given), with 84 to 124 °C. Then `CC(CC(=O)OC(C)C)N=c1sc2ccccc2s1` (stereo not given), with 44 °C; and `CCCCCCCC[C@H]1CC[C@H](C(=O)O)CC1`, with 36 to 37 °C.
